The source made the active and inactive calls.
Tests used:
[1] = Potency on glucagon-like peptide 1 release, dose-response in NCI-H716 cell line, half maximal inhibitory concentration (AID 1117344); type: functional, cell-based
[2] = glucagon-like peptide-1 release potency in STC-1, concentration-response, half-maximal inhibitory concentration in the STC-1 line (AID 1117345); type: functional, cell-based
[3] = IC50 of insulin release inhibition, rat insulinoma INS-1E line, 5 mM glucose, cell-based (AID 1117331); type: functional
BJ [4] = assay: BJ-TERT fibroblast viability loss – cell-based, RAS-independent, luminescence, dose response (AID 1933); type: functional; conditions: Homo sapiens
[5] = DRD fibroblast viability loss – cell-based, non-viral oncogenic, luminescence, dose response (AID 1934); type: functional; conditions: Homo sapiens
BJ [6] = assay: growth inhibition of engineered Ras-driven BJ cells – cell-based, alamar blue fluorescence, cherrypicked samples, dose response (AID 2631); type: functional; conditions: Homo sapiens;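 further: confirmatory dose-response assay in RAS-dependent BJ fibroblasts engineered with TERT, LT and ST, with cytotoxicity read by fluorescence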
BJ [7] = assay: BJ-TERT-LT-ST fibroblast viability loss – cell-based, RAS-independent, luminescence, dose response (AID 1935); type: functional; conditions: Homo sapiens;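 further: BJ fibroblasts immortalized with TERT plus LT and ST oncogenes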
BJ [8] = assay: cells; type: functional, cell-based; conditions: Homo sapiens
[9] = Luminescence-based dose response cell-based high throughput screening assay for cytotoxic compounds using the IEC-6 intestinal epithelial cell line. [Related pubchem assays: 1858 (Summary AID.), 1825 (Counterscreen.), 1907 (Confirmation screen.)]; type: functional
H9c2 = assay: cells; type: functional, cell-based; conditions: Rattus norvegicus, H9c2, Myocardium;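 further: confirmatory concentration-response retest of ultra-high-throughput screening hits for modulation of myocardial damage; cell death induced by hydrogen peroxide oxidative stress; compound pretreatment for 60 min then peroxide exposure for 2 h; potency is for protecting the cells against peroxide damage rather than for killing them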
[10] = biological target: T1, E3 ubiquitin-protein ligase XIAP (Homo sapiens, UniProt P98170); assay: Counter Screen using XIAP-Bir3 for Chemical Antagonists of Bir1/2 domains of IAP-family anti-apoptotic proteins. [Related pubchem assays (depositor defined):AID1018, AID1449, AID1514, AID1638, AID1749, AID1750, AID488957, AID488963]
T1 sequence (P98170 whole entry): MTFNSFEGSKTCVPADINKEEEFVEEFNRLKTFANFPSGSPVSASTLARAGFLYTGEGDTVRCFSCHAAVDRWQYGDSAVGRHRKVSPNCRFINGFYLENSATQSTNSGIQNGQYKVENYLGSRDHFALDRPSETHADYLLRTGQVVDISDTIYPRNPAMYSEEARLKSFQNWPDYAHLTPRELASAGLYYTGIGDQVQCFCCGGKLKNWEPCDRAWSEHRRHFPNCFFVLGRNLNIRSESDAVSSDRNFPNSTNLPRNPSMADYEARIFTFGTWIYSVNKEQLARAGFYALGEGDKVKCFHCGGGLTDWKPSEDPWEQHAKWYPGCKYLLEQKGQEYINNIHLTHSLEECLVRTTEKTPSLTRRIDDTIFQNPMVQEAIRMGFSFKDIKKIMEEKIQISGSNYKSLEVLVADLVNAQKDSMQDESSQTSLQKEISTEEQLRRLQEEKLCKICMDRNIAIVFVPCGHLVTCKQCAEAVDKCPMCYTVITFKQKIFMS

[11] = Luminescent dose response cell-based high throughput screening assay for inhibitors of the Janus kinase 2 mutant JAK2V617F. [Related pubchem assays: 1446 (Primary screen.), 1521 (Confirmation assay.), 1486 (Counter screen.)]; type: functional
[12] = biological target: T1, E3 ubiquitin-protein ligase XIAP; assay: small molecules displacing peptide from XIAP – biochemical, IAP family, fluorescence polarization (AID 1018); type: functional
Large T antigen = Large T antigen (Simian virus 40, UniProt P03070); type: functional, Betapolyomavirus macacae;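 further: Confirmatory-stage PubChem screen for compounds that inhibit SV40 T antigen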
Sequence of Large T antigen (P03070 whole entry): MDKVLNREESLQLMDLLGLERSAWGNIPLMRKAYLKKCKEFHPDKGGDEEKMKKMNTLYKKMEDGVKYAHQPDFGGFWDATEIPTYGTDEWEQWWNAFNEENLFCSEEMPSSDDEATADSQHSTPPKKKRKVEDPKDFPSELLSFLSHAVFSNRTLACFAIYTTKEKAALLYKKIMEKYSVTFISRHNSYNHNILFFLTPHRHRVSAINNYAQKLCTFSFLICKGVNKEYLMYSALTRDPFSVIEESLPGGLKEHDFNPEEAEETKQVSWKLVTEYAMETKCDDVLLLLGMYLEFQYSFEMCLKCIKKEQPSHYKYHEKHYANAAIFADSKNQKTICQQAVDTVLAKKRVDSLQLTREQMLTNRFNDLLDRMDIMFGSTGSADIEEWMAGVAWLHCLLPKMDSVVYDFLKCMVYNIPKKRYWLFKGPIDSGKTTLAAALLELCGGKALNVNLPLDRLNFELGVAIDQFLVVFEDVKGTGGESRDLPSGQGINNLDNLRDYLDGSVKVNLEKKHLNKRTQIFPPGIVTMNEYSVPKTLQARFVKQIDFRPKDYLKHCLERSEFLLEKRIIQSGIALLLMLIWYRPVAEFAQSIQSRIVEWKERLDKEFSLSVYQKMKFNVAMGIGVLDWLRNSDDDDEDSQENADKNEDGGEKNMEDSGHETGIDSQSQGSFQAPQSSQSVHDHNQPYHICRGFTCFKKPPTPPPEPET

[13] = biological target: T2, Heat shock factor protein 1 (Mus musculus, UniProt P38532); assay: decrease of HSF1-responsive luciferase luminescence – cell-based, NIH3T3, dose retest, confirmation (AID 2382); type: functional;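 further: NIH3T3 fibroblasts with HSF1-driven luciferase reporter stressed by proteasome inhibitor MG132; luminescence from HSF1-driven luciferase expression after 8 hours of MG132 stress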
T2 sequence (P38532 whole entry): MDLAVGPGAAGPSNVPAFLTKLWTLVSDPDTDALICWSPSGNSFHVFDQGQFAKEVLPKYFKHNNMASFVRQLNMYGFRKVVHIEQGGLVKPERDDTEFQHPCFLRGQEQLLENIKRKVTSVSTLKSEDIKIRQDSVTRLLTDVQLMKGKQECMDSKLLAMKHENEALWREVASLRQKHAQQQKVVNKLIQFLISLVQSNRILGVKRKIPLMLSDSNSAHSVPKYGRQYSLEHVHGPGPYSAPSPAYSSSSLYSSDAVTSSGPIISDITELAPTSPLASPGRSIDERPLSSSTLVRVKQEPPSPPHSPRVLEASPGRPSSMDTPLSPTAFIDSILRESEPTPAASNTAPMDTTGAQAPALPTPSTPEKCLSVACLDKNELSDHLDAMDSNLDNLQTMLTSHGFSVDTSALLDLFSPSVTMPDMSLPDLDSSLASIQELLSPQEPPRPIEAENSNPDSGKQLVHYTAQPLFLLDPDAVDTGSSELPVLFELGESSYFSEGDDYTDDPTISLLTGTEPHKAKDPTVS

[14] = biological target: Neuropeptides B/W receptor type 1 (Homo sapiens, UniProt P48145); assay: Fluorescence-based dose response cell-based high throughput screening assay to identify antagonists of the G-protein coupled receptor 7 (GPR7). [Related pubchem assays: 1952 (Screening assay (GPR7 antagonists).), 1880 (Summary AID.)]; type: functional
[15] = biological target: Melanin-concentrating hormone receptor 1 (Homo sapiens, UniProt Q99705); assay: Fluorescence-based counterscreen for antagonists of the G-protein coupled receptor 7 (GPR7): cell-based high throughput dose response assay to identify antagonists of the melanin-concentrating hormone receptor 1 (MCHR1).; type: functional
[16] = biological target: T3, Tyrosine-protein phosphatase non-receptor type 7 (Homo sapiens, UniProt P35236); assay: HePTP tyrosine phosphatase activity blockers – biochemical, absorbance, leukemia target, primary screen (AID 521); type: functional
T3 sequence (P35236 whole entry): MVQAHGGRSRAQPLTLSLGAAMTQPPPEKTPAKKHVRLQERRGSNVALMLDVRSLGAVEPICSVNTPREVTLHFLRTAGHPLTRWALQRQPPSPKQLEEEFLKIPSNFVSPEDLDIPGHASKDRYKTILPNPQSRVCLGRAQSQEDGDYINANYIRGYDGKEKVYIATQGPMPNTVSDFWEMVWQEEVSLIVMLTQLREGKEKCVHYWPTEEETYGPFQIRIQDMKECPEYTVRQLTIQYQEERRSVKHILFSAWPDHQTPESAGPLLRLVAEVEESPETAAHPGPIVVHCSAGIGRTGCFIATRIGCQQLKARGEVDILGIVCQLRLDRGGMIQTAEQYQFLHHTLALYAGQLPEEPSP

[17] = NIH3T3 cell viability loss – ATP luminescence, mouse fibroblasts, counter-screen, dose response (AID 2010); type: functional, cell-based;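 further: cells exposed to compound for about 90 hours before reading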
[18] = Trypanosoma cruzi growth suppression in host cells – NIH3T3 host cells, beta-gal luminescence, confirmation (AID 2044); type: functional, cell-based;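 further: intracellular parasites grown in NIH/3T3 mouse fibroblasts as host cells; luminescent beta-galactosidase reporter signal from transgenic T. cruzi replicating inside host cells; inhibitors lower the luminescence signal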
[19] = M. tuberculosis growth inhibition, HTS (AID 449762); type: functional
Estrogen receptor beta [20] = biological target: T4, Estrogen receptor beta (Homo sapiens, UniProt Q92731); assay: blockers of SRC-3 recruitment to ERβ – biochemical, ELISA, streptavidin-HRP readout, orthogonal assay, confirmation (AID 1060)
T4 sequence (Q92731 whole entry): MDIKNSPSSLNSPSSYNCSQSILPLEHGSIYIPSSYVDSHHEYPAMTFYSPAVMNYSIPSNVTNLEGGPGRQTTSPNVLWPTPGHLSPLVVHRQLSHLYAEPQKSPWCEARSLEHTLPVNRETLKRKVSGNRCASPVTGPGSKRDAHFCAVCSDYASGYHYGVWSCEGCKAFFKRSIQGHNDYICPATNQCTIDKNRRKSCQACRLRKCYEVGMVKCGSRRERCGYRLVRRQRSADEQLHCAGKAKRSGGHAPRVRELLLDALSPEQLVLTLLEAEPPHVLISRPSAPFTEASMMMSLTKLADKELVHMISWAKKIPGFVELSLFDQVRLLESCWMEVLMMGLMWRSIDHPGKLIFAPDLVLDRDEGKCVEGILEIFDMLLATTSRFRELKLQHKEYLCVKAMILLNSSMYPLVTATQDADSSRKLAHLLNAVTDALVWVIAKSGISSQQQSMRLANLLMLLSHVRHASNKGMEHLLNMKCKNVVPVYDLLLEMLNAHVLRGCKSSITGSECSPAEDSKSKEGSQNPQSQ

Estrogen receptor beta [21] = biological target: T4, Estrogen receptor beta
[22] = biological target: 5-hydroxytryptamine receptor 1A (Homo sapiens, UniProt P08908); type: functional
Mucolipin-3 = Mucolipin-3 (Homo sapiens, UniProt Q8TDD5); assay: Dose response cell-based high-throughput screening assay for agonists of the transient receptor potential channel ML3 (TRPML3). [Related pubchem assays: 1526, 1424, 1448 ]; type: functional
Sequence of Mucolipin-3 (Q8TDD5 whole entry): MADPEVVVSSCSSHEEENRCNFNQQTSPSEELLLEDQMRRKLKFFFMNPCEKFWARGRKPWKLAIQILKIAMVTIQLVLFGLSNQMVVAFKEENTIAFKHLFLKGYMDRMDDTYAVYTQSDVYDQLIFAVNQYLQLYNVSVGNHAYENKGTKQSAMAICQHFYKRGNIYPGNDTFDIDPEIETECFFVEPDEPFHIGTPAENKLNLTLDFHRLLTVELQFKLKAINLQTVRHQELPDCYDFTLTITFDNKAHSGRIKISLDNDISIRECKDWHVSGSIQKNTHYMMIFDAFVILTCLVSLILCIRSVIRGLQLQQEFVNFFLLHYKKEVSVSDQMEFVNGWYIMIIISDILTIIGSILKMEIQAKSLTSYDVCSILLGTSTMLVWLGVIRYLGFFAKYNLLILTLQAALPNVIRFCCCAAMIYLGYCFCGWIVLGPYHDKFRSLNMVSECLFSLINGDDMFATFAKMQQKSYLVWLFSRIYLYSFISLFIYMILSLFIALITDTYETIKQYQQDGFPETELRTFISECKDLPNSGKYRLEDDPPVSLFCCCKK

Ion channel NompC = Ion channel NompC (Danio rerio, UniProt Q7T1G6); assay: Fluorescence counterscreen assay for TRPML3 agonists: dose response cell-based high-throughput screening assay to identify agonists of the transient receptor potential channel N1 (TRPN1). [Related pubchem assays: 1526, 1424, 1448 ]; type: functional
[23] = viability inhibitors of stage V gametocytes – luminescence, dose response (AID 1117278); type: functional, cell-based;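 further: gametocytes exposed to compound for 24 hours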
[24] = viability loss in human Jurkat cells – cell-based, luminescence, cytotoxicity control for P. falciparum gametocyte viability project, dose response (AID 1117277); type: functional;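 further: potency reflects loss of cellular ATP meaning fewer viable cells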
[25] = biological target: E3 ubiquitin-protein ligase Mdm2 (Homo sapiens, UniProt Q00987); assay: MDM2-luc reporter signal enhancers, multi-concentration potency testing, MDM2 ubiquitin-protein ligase inhibitor program, whole-cell format, luminescence detection, 384-well microplate (AID 1394); type: functional;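 further: MDM2 E3 inhibitors raise luminescence so EC50 is for signal enhancement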
Sequence of E3 ubiquitin-protein ligase Mdm2 (Q00987 whole entry): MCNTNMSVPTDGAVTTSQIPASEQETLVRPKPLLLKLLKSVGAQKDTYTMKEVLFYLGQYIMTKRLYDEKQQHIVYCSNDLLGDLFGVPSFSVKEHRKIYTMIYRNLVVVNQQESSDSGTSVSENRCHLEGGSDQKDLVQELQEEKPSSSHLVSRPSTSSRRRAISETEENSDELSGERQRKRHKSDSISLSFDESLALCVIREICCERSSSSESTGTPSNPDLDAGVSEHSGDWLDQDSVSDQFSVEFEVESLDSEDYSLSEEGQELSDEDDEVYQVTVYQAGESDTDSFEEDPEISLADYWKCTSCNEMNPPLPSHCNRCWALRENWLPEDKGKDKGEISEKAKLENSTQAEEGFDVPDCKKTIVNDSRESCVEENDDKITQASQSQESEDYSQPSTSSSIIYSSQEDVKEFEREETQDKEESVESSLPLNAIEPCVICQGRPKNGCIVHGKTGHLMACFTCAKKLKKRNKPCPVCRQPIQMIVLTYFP

NADPH oxidase 1 = biological target: T5, NADPH oxidase 1 (Homo sapiens, UniProt Q9Y5S8); type: functional, cell-based;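 further: Cell-based assay with luminescence read-out, IC50 derived from inhibitor dose-response curves; intracellular ROS from endogenous NOX1 in intact HT29 colon cancer cells; potency of inhibitors that lower the ROS luminescence signal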
T5 sequence (Q9Y5S8 whole entry): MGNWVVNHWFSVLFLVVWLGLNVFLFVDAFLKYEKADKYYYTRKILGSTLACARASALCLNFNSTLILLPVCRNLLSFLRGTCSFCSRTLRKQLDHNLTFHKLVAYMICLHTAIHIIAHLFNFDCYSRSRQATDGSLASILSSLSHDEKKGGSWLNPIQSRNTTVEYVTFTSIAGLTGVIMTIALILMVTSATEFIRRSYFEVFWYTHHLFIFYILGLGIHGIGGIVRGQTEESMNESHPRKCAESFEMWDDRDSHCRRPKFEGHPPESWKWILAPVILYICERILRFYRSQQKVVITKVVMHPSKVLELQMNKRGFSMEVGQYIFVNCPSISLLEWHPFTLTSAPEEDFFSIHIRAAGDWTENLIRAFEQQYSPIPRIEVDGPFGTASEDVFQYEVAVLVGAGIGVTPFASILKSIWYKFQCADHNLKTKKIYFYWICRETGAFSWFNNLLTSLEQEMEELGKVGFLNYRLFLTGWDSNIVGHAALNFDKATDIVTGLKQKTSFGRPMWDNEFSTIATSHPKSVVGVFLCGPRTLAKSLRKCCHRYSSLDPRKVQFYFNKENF

[26] = biological target: Peroxisome proliferator-activated receptor gamma/Nuclear receptor corepressor 2 (Homo sapiens, UniProt P37231+Q9Y618); assay: Counterscreen for NR2E3 inverse agonists: TR-FRET-based biochemical high throughput dose response assay to identify inverse agonists of the interaction between peroxisome proliferator-activated receptor gamma (PPARg) and nuclear receptor co-repressor 2 (NCOR2).; type: functional
[27] = biological target: Photoreceptor-specific nuclear receptor (Homo sapiens, UniProt Q9Y5X4); assay: ligands suppressing NR2E3 nuclear receptor activity – biochemical, TR-FRET, dose response (AID 463256); type: functional
Streptococcus = assay: GAS UMAA2166 growth inhibition – luminescence, BacTiterGlo, counter-screen for streptokinase expression inhibitor project, dose response (AID 1915); type: functional, organism-based;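 further: potency for reduction of bacterial viability or growth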
[28] = system: Streptococcus sp. 'group A'; assay: Streptococcus pyogenes SK(-)GAS viability under kanamycin – luminescence, BacTiterGlo, confirmation, counter-screen for streptokinase expression inhibitor project, dose response (AID 1900); type: functional, organism-based
[29] = biological target: Voltage-gated inwardly rectifying potassium channel KCNH2 (Homo sapiens, UniProt Q12809); assay: concentration-dependent hERG rescue from blockers – cell-based, thallium flux, dose response (AID 2121); type: ADME
Sequence of Voltage-gated inwardly rectifying potassium channel KCNH2 (Q12809 whole entry): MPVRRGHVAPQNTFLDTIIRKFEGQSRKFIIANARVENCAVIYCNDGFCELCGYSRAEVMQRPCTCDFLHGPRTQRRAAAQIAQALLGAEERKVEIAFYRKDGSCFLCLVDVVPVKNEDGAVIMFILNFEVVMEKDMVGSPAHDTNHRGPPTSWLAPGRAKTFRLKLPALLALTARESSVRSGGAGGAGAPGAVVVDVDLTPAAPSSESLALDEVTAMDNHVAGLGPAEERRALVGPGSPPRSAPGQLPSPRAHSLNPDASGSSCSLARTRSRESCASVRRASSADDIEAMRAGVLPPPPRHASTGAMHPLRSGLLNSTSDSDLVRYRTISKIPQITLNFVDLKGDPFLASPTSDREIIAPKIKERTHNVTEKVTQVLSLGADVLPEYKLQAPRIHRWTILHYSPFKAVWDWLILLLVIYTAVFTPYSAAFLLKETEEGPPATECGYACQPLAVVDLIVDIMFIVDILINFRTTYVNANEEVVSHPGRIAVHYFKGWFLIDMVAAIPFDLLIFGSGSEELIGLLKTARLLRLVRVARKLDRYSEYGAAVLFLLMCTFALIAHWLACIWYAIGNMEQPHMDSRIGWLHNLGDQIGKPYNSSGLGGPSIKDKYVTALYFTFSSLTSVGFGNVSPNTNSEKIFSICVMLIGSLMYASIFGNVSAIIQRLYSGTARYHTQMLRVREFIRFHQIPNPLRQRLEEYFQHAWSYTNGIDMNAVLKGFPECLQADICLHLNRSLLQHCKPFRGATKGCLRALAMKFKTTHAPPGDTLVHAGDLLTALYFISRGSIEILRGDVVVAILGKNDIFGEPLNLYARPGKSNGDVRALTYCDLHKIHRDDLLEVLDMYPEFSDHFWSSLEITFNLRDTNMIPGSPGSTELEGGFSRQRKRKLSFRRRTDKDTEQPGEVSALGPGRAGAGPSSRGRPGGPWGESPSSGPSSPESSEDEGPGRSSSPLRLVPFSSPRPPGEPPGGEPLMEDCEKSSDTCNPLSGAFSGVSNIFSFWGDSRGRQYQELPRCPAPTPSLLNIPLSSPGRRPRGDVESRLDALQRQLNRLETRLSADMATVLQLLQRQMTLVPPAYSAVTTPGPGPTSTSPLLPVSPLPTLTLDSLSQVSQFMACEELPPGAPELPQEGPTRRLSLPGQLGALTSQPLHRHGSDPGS

Streptokinase A = biological target: T6, Streptokinase A (Streptococcus pyogenes serotype M1, UniProt P10520); assay: viability-normalized secreted streptokinase activity reduction – plasminogen activation absorbance, OD405, dose response (AID 1914); type: functional, Streptococcus pyogenes M1 GAS;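 further: secreted streptokinase activity via plasminogen activation per viability signal from cell pellet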
T6 sequence (P10520 whole entry): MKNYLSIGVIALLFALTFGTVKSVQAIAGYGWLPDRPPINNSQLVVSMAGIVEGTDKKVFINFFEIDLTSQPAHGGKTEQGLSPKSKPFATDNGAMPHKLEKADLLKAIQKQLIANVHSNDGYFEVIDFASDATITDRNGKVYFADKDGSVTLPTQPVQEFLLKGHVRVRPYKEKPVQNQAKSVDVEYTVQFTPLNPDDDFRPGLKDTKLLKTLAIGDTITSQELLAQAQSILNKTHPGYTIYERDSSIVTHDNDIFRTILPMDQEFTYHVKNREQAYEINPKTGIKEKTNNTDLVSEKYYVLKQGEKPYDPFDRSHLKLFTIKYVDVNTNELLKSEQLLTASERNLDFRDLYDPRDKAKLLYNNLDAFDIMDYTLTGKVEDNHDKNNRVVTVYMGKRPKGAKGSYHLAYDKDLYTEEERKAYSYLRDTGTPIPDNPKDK

Ephrin type-A receptor 4 = Ephrin type-A receptor 4 (Mus musculus, UniProt Q03137); assay: EphA4 ligand-binding antagonists – biochemical, colorimetric, mouse EphA4, primary screen (AID 689); type: functional
Sequence of Ephrin type-A receptor 4 (Q03137 whole entry): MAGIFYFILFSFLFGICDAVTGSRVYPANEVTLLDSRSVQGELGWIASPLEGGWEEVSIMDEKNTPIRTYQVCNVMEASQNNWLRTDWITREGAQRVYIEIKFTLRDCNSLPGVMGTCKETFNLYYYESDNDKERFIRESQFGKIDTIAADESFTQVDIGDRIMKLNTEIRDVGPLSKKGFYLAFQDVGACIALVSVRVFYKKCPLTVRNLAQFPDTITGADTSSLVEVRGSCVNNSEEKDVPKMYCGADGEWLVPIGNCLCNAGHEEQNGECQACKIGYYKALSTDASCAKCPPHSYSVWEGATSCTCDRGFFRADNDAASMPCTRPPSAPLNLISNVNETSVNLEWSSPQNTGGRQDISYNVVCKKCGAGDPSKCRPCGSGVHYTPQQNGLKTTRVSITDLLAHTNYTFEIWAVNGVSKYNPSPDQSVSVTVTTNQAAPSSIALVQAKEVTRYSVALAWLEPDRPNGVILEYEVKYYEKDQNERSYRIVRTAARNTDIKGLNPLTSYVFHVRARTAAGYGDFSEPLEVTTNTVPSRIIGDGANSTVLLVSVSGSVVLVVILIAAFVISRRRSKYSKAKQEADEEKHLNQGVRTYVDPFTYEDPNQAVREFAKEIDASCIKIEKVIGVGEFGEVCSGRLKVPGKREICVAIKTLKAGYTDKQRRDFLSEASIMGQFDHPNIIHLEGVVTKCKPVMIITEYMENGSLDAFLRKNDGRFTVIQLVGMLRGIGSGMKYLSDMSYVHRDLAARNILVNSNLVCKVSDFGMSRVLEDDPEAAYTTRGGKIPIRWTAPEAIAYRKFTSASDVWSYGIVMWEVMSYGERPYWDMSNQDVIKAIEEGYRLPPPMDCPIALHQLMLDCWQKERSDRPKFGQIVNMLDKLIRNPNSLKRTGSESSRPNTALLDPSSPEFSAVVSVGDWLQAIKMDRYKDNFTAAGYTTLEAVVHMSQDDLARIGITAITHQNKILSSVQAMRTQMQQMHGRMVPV

cells = type: functional, cell-based; conditions: INS-1E

CC(C)(C)CC(C)(C)c1ccc(O)c(Cc2ccc(Cl)cc2Cl)c1 [CLOFOCTOL]
IC50 [1]: 9.07 µM (inactive)
IC50 [2]: 0.544 µM (active)
IC50 [3]: > 33.3 µM (inactive)

CC(C)(C)c1ccc(C(=O)Nc2ccc(C(=O)NCc3cccnc3)cc2)cc1
EC50 (BJ [4]): 25.5 µM (active)
EC50 [5]: > 150 µM (not active)
EC50 (BJ [6]): 0.549 µM (active)
EC50 (BJ [7]): 0.88 µM (inconclusive)
EC50 (BJ [8]): 0.515 µM (active)
IC50 [9]: 0.177 µM (active)

COC(=O)/C=C/c1ccc(OC(=O)OC)c(OC(=O)OC)c1
IC50 (H9c2): > 79 µM (inactive)
IC50 [10]: > 100 µM (inactive)
IC50 [11]: 2.64 µM (active)
IC50 [12]: > 100 µM (not active)
IC50 (Large T antigen): 12.1 µM (active)

CCCC(CCC)C(=O)Nc1ccc2c(c1)N(C(=O)CCN1CCN(C)CC1)c1ccccc1CC2
EC50 [13]: > 195 µM (not active)
IC50 [14]: 7.8 µM (active)
IC50 [15]: 15.7 µM (not active)

O=C(Nc1ccc2c(c1)OCO2)NC1CCN(Cc2ccccc2)CC1
IC50 [16]: > 100 µM (not active)
EC50 [17]: > 60 µM (not active)
EC50 [18]: 1 µM (active)

CCCSC1=C(C#N)C(c2ccc(Cl)cc2Cl)CC(=O)N1 (stereo not given)
IC50 [19]: > 25 µM (active)

COc1ccccc1N1CCN(C(=O)c2ccc3nc(-c4ccco4)c(-c4ccco4)nc3c2)CC1
IC50 (H9c2): 11.7 µM (active)
IC50 (Estrogen receptor beta [20]): 9.53 µM (not active)
IC50 (Estrogen receptor beta [21]): 5.96 µM (active)

CN(C)CCCn1c(NC(=O)C2CCCCC2)nc2ccccc21
EC50 [22]: > 50 µM (not active)

CCN(C(=O)c1cnc(OC)cc1C(F)(F)F)c1ccc(Cl)cc1Cl
EC50 (Mucolipin-3): 4.59 µM (active)
EC50 (Ion channel NompC): 8.86 µM (active)
IC50 [23]: > 109 µM (inactive)
IC50 [24]: > 83.3 µM (inactive)

CC(=O)NC1C(=O)N=C(SCC(=O)NC(C)c2ccccc2)NC1=O (stereo not given)
EC50 [25]: 1.67 µM (not active)

O=C(O)c1nc(Cl)c(Cl)c(N/N=C/c2ccccc2)c1Cl
IC50 (NADPH oxidase 1): > 17 µM (not active)

COc1ccc(N2CCN(CC(=O)Nc3ccccc3C(=O)NCc3ccccc3)CC2)cc1
IC50 [26]: 3.53 µM (active)
IC50 [27]: 3.67 µM (active)

COc1ccc(N2CCN(C(=S)NC(=O)c3cccs3)CC2)c([N+](=O)[O-])c1
EC50 (Streptococcus): 24.5 µM (active)
EC50 [28]: 9.37 µM (active)
EC50 [29]: 12.2 µM (active)
EC50 (Streptokinase A): > 150 µM (not active)

CCCCOP(=O)(OCCCC)/C(C#N)=C(/C)O
IC50 (Ephrin type-A receptor 4): > 100 µM (not active)

Oc1ccccc1 [PHENOL]
IC50 (cells): > 33.3 µM (inactive)
IC50 [3]: > 33.3 µM (inactive)
